Assays:
human IMPDH1 = settings: human IMPDH1, no detectable activity; cited from earlier work
human IMPDH2 = settings: human IMPDH2, no detectable activity; cited from earlier work
[1] = tested on: Toxo/CpIMPDH, strain that depends on CpIMPDH; format: cell-based, Toxoplasma gondii; settings: in words
C. parvum = settings: anticryptosporidial activity, literature values; cited from earlier work

Row | SMILES | activity against T. gondii/CpIMPDH [1] | also measured
1 | COc1ccc(NC(=O)Cn2c(-c3cscn3)nc3ccccc32)cc1 [C] | – | IC50 (human IMPDH1): > 50 µM; IC50 (human IMPDH2): > 50 µM
2 | O=C(Cn1c(-c2ccccn2)nc2ccccc21)Nc1ccc2ccccc2c1 [Compound C91] | sub-micromolar | –
3 | NC[C@@H]1O[C@H](O[C@H]2[C@@H](O)[C@H](O[C@@H]3[C@@H](O)[C@H](N)C[C@H](N)[C@H]3O[C@H]3O[C@H](CO)[C@@H](O)[C@H](O)[C@H]3N)O[C@@H]2CO)[C@H](N)[C@@H](O)[C@@H]1O [paromomycin] | – | EC50 (C. parvum): 65 to 130 µM
4 | O=C(Cn1c(-c2cscn2)nc2ccccc21)Nc1ccc2ccccc2c1 [Compound C90] | sub-micromolar | –
5 | O=C(Cn1c(-c2nccs2)nc2ccccc21)Nc1ccc2ccccc2c1 [Compound C97] | sub-micromolar | –
6 | O=C(Cn1c(-c2nccs2)nc2ccccc21)Nc1ccc(Cl)c(Cl)c1 [Compound C84] | sub-micromolar | –
7 | O=C(Cn1c(-c2nccs2)nc2ccccc21)Nc1ccc(Br)cc1 [Compound C64] | sub-micromolar | –

Reference: paper PMC3289519 (Bioorganic & medicinal chemistry letters, 2012)
